Test system: yeast genes (expressed mRNA)
Assay: DNA chip measurement of expressed mRNA of yeast genes after culture with a toxic chemical substance
Assay type: cell-based, Saccharomyces cerevisiae S288C
Conditions: for level of expressed mRNA in the presence of chemical substance / level in the absence of chemical substance: cultured two hours with the chemical substance; for The level of expressed mRNA in the presence of chemical substance/The level of expressed mRNA in the absence of chemical substance: cultured two hours with substance
In short: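 S. cerevisiae S288C grown at 25 °C in YPD, exposed in log phase for 2 h to a toxicant at growth-inhibiting, non-lethal concentration. Cy3/Cy5-labelled cDNA from poly(A) mRNA hybridized to whole-genome chip at 65 °C >12 h. Ratio to untreated control, ≥2 significant.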

[Cl][Hg][Cl] [(3), HgCl2]
level of expressed mRNA in the presence of chemical substance / level in the absence of chemical substance (yeast gene YJL097W): 3.7 | The level of expressed mRNA in the presence of chemical substance/The level of expressed mRNA in the absence of chemical substance (yeast gene YJL151C): 3.2 | The level of expressed mRNA in the presence of chemical substance/The level of expressed mRNA in the absence of chemical substance (yeast gene YJL152W): 1.8 | The level of expressed mRNA in the presence of chemical substance/The level of expressed mRNA in the absence of chemical substance (yeast gene YJL161W): 1.5 | The level of expressed mRNA in the presence of chemical substance/The level of expressed mRNA in the absence of chemical substance (yeast gene YJL171C): 2.8 | The level of expressed mRNA in the presence of chemical substance/The level of expressed mRNA in the absence of chemical substance (yeast gene YJR008W): 1.2 | level of expressed mRNA in the presence of chemical substance / level in the absence of chemical substance (yeast gene YJR030C): 0.9 | The level of expressed mRNA in the presence of chemical substance/The level of expressed mRNA in the absence of chemical substance (yeast gene YJR054W): 0.3 | level of expressed mRNA in the presence of chemical substance / level in the absence of chemical substance (yeast gene YKL051W): 4.7 | The level of expressed mRNA in the presence of chemical substance/The level of expressed mRNA in the absence of chemical substance (yeast gene YKL071W): 5.4 | The level of expressed mRNA in the presence of chemical substance/The level of expressed mRNA in the absence of chemical substance (yeast gene YKL086W): 2.4 | level of expressed mRNA in the presence of chemical substance / level in the absence of chemical substance (yeast gene YKL097C): 0.6 | level of expressed mRNA in the presence of chemical substance / level in the absence of chemical substance (yeast gene YKL100C): 5.0 | The level of expressed mRNA in the presence of chemical substance/The level of expressed mRNA in the absence of chemical substance (yeast gene YKL151C): 1.7 | The level of expressed mRNA in the presence of chemical substance/The level of expressed mRNA in the absence of chemical substance (yeast gene YKL153W): 2.0 | The level of expressed mRNA in the presence of chemical substance/The level of expressed mRNA in the absence of chemical substance (yeast gene YKL195W): 0.4 | level of expressed mRNA in the presence of chemical substance / level in the absence of chemical substance (yeast gene YKR040C): 2.4 | The level of expressed mRNA in the presence of chemical substance/The level of expressed mRNA in the absence of chemical substance (yeast gene YKR091W): 0.9 | The level of expressed mRNA in the presence of chemical substance/The level of expressed mRNA in the absence of chemical substance (yeast gene YLR054C): 0.4 | The level of expressed mRNA in the presence of chemical substance/The level of expressed mRNA in the absence of chemical substance (yeast gene YLR149C): 3.4 | The level of expressed mRNA in the presence of chemical substance/The level of expressed mRNA in the absence of chemical substance (yeast gene YLR152C): 1.1 | The level of expressed mRNA in the presence of chemical substance/The level of expressed mRNA in the absence of chemical substance (yeast gene YLR194C): 1.3 | level of expressed mRNA in the presence of chemical substance / level in the absence of chemical substance (yeast gene YLR226W): 0.3 | The level of expressed mRNA in the presence of chemical substance/The level of expressed mRNA in the absence of chemical substance (yeast gene YLR324W): 0.9 | level of expressed mRNA in the presence of chemical substance / level in the absence of chemical substance (yeast gene YLR338W): 1.4 | The level of expressed mRNA in the presence of chemical substance/The level of expressed mRNA in the absence of chemical substance (yeast gene YLR350W): 3.2 | The level of expressed mRNA in the presence of chemical substance/The level of expressed mRNA in the absence of chemical substance (yeast gene YLR387C): 0.8 | level of expressed mRNA in the presence of chemical substance / level in the absence of chemical substance (yeast gene YLR392C): 0.8 | level of expressed mRNA in the presence of chemical substance / level in the absence of chemical substance (yeast gene YLR415C): 6.7 | level of expressed mRNA in the presence of chemical substance / level in the absence of chemical substance (yeast gene YLR427W): 0.2 | The level of expressed mRNA in the presence of chemical substance/The level of expressed mRNA in the absence of chemical substance (yeast gene YLR460C): 2.0 | level of expressed mRNA in the presence of chemical substance / level in the absence of chemical substance (yeast gene YML013W): 0.4 | level of expressed mRNA in the presence of chemical substance / level in the absence of chemical substance (yeast gene YML029W): 1.3 | level of expressed mRNA in the presence of chemical substance / level in the absence of chemical substance (yeast gene YML041C): 0.6 | level of expressed mRNA in the presence of chemical substance / level in the absence of chemical substance (yeast gene YML079W): 1.1 | The level of expressed mRNA in the presence of chemical substance/The level of expressed mRNA in the absence of chemical substance (yeast gene YML117W): 0.9 | The level of expressed mRNA in the presence of chemical substance/The level of expressed mRNA in the absence of chemical substance (yeast gene YMR009W): 0.5 | The level of expressed mRNA in the presence of chemical substance/The level of expressed mRNA in the absence of chemical substance (yeast gene YMR067C): 1.1 | level of expressed mRNA in the presence of chemical substance / level in the absence of chemical substance (yeast gene YMR068W): 0.8 | level of expressed mRNA in the presence of chemical substance / level in the absence of chemical substance (yeast gene YMR071C): 1.1 | The level of expressed mRNA in the presence of chemical substance/The level of expressed mRNA in the absence of chemical substance (yeast gene YMR090W): 2.3 | The level of expressed mRNA in the presence of chemical substance/The level of expressed mRNA in the absence of chemical substance (yeast gene YMR095C): 1.6 | The level of expressed mRNA in the presence of chemical substance/The level of expressed mRNA in the absence of chemical substance (yeast gene YMR097C): 0.7 | The level of expressed mRNA in the presence of chemical substance/The level of expressed mRNA in the absence of chemical substance (yeast gene YMR102C): 1.1 | The level of expressed mRNA in the presence of chemical substance/The level of expressed mRNA in the absence of chemical substance (yeast gene YMR107W): 1.7 | level of expressed mRNA in the presence of chemical substance / level in the absence of chemical substance (yeast gene YMR160W): 1.2 | The level of expressed mRNA in the presence of chemical substance/The level of expressed mRNA in the absence of chemical substance (yeast gene YMR180C): 1.0 | The level of expressed mRNA in the presence of chemical substance/The level of expressed mRNA in the absence of chemical substance (yeast gene YMR184W): 1.0 | The level of expressed mRNA in the presence of chemical substance/The level of expressed mRNA in the absence of chemical substance (yeast gene YMR191W): 1.9 | The level of expressed mRNA in the presence of chemical substance/The level of expressed mRNA in the absence of chemical substance (yeast gene YMR295C): 1.2 | The level of expressed mRNA in the presence of chemical substance/The level of expressed mRNA in the absence of chemical substance (yeast gene YMR316W): 1.1 | level of expressed mRNA in the presence of chemical substance / level in the absence of chemical substance (yeast gene YNL026W): 1.3 | The level of expressed mRNA in the presence of chemical substance/The level of expressed mRNA in the absence of chemical substance (yeast gene YNL044W): 2.3

Reference: patent US20100041089A1, “IMPROVED METHOD FOR DETECTING CHEMICAL […]” (priority 2006, published 2010)
